“Also recorded” adds a separate entry of the source.

Assay [1] relates to RBC membrane thiols. In words: Alkylation of IOV proteins with 14C-iodoacetamide. It counts as biochemical. The conditions noted are these: DIDS-modified vs unmodified IOVs. An excerpt:
FIG. 8G is a fluorographic image of proteins on an SDS-polyacrylamide gel following electrophoresis. […] The position of AE1 on the gel, determined by Western blotting, is indicated. (n=3-8 for A-F).
Thus, inhibition of transnitrosylation by DIDS supports the conclusion that AE1 is the principal acceptor of NO groups transferred from SNO-Hb to the RBC membrane.

For assay [2], the target named is Hb (Homo sapiens, UniProt P68871+P69905). In words: Titration of normoxic Hb with NO, fitted UV-visible difference spectra. Also noted: purchased Apex Bioscience (Research Triangle Park, N.C.). It counts as biochemical. As for the experimental part:
Air-oxygenated Hb was titrated with 0.22 μM NO. Samples were analyzed immediately after NO addition by UV-visible spectrophotometry. Time between additions varied from 3 to 5 minutes.
The extinction coefficient spectra of metHb, deoxyhb, iron nitrosylHb and oxyHb were generated from pure solutions of each species. HbA was diluted into PBS (pH 7.4) to a known final heme concentration [as calculated by the pyridine-hemochromagen method (Antonini, E., et al., p. 13 in Frontiers in Biology, Neuberger, A. and Tatum, E. L. eds., North-Holland Publishing, Co., Amsterdam, London, 1971)]. MetHb was synthesized by adding excess K3FeCN6. DeoxyHb was measured after the addition of dithionite, and nitrosyl- and oxyHb were measured following saturation with each ligand.
Difference spectra were obtained by subtracting the UV-visible spectrum of a given sample before the addition of NO from those after. The simple competition model discussed above, predicts that such difference spectra could be approximated by a linear combination of two standard difference spectra: an oxyHb minus metHb spectrum, which gauges the progress of the NO oxidation reaction, and a deoxyHb minus iron nitrosyHb, which gauges the NO addition reaction; the sum of the combining coefficients is fixed by the mass balance ([NO]0). Standard difference spectra were obtained from UV-visible spectra of authentic samples of metHb, oxyHb, nitrosylHb, and deoxyHb. We determined combining coefficients by a least-squares fitting procedure. Inasmuch as the deoxy- and/or oxyheme concentrations can decline during the competition, an additional component (deoxyHb minus oxyHb) could be expected.
(A) Nitrosyl content of oxyHb (10 mM phosphate 100 μM DTPA, pH 7.4) after exposure to 1.2 μM NO, as measured by photolysis-chemiluminescence (Stamler, J. S., et al., Science, 276:2034-2037, 1997). Nitrosyl yield increases as a function of Hb concentration (P<0.05). Solid symbols, absolute yield of NO bound to Hb (FeNO plus SNO); open symbols, percentage of NO added. Data shown are the average of 7 to 19 experiments±SE. (B) Standard difference spectra of metHb (solid line), deoxyHb (dotted line), and iron nitrosylHb (dashed line) vs. oxyHb. (C) Difference spectra generated from the exposure of NO to normoxic (≈99% oxygen saturation) Hb. NO was added (in 10 aliquots totaling 2.2 μM) to 33 μM Hb in 100 mM phosphate (solid line) or 10 mM phosphate (dotted line) or 10 mM phosphate plus 0.05% borate (dashed line). […] Specifically, spectra in C were fitted, by a least-squares process, to either the simple competition model or the cooperativity model without a mass balance constraint. Cooperativity is present if add increases above that reported in the literature, as a function of oxygen tension.

Turning to `O=S(=O)(O)c1cc(N=C=S)ccc1C=Cc1ccc(N=C=S)cc1S(=O)(=O)O` [DIDS, 4,4′-diisothiocyanatostilbene-2,2′-disulfonic acid], in assay [1], the “direct modification of sulfhydryls” value is “did not modify sulfhydryls directly; also recorded: does not directly reduce reactivity”.
Turning to `[N]=O` [NO, nitric oxide], the “iron nitrosylHb in fitted difference spectrum” value in assay [2] (2.2 μM NO, 33 μM Hb, 10 mM phosphate, ≈99% O2) worked out at 54%; in assay [2] (10 mM phosphate plus 0.05% borate), 85%. The “metHb in fitted difference spectrum” value in assay [2] (2.2 μM NO, 33 μM Hb, 100 mM phosphate, ≈99% O2) was 95%. The entries for the “added NO accounted for by the spectra” value in assay [2] (10 mM (low) phosphate) and in assay [2] (low phosphate plus borate) were 50% and 80%, respectively.

These data come from US20090232909A1, “Method for determining physiological effects of hemoglobin” (priority 1999, published 2009).
